These results are taken from US11622970B2, “BCL-2 inhibitors and their use as pharmaceuticals” (PRELUDE THERAPEUTICS INCORPORATED, priority 2020, dated 2023).

Structures are written as SMILES.

The target in this assay is BCL-2 recombinant protein (Homo sapiens, UniProt P10415). In words: Cell free Bcl-2:Bak affinity assay (Bcl-2 Bak), HTRF competition of FAM-Bak peptide. Particulars: 4 nM BCL-2 recombinant protein, 100 nM FAM-Bak; for inhibition at 1 µM: 1 μM compound, read-out: potency (% inhibition at 1 μM); for IC50: 10-concentration IC50 mode, read-out: potency (IC50). Format: binding. As to the method: Biological Assays: Cell Free Bcl-2:Bak Affinity Assay (Bcl-2 Bak)
The assay is based on the competition of fluorescently labeled peptide binding to BCL-2 and the binding is monitored by HTRF signals between anti-GST-Tb and FAM-peptide using GST-Tag BCL proteins. Testing compounds were dissolved in DMSO at 10 mM and tested in 10-concentration IC50 mode. The compounds of interest in DMSO were added in 3-fold serial dilution to each well containing 4 nM of BCL-2 recombinant protein, 20 mM K Phosphate, pH 7.5, 50 mM NaCl, 1 mM EDTA, 0.005% Triton X-100, by using acoustic technology (Labcyte echo 550), After 10 minutes incubation at room temperature, 100 nM of FAM-Bak was added and incubated for another 10 minutes before addition of Anti-GST-Tb. The plate was then sealed and further incubated at room temperature for 60 minutes in the dark before reading. Percentage of inhibition was calculated by % inhibition=100×(FDMSO−F)/(FDMSO−FPC), in which FDMSO is DMSO control and FPC is a positive control. IC50 values were determined from dose-response curve by fitting the percent inhibition against compound concentration using GraphPad Prism software.
For orientation: TR-FRET usually uses a lanthanide donor and a delayed reading to cut background.

Chain of BCL-2 recombinant protein (P10415 whole entry): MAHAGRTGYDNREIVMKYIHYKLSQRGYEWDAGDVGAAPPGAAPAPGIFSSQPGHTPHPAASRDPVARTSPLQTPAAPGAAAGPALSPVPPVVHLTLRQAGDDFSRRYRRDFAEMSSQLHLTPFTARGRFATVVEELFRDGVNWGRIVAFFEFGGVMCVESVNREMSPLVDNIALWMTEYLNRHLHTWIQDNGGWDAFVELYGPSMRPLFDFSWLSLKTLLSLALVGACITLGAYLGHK

In general, inhibition refers to the share of the control response that was lost under treatment. In the case of `CC1(C)CCC(CN2CCN(c3ccc(S(=O)(=O)NC(=O)c4ccc(Br)cn4)cc3)CC2)=C(c2ccc(Cl)cc2)C1` [Example 13, 5-bromo-N-([4-[4-[[2-(4-chlorophenyl)-4,4-dimethylcyclohexen-1-yl]methyl]piperazin-1-yl]phenyl]sulfonyl)pyridine-2-carboxamide], the inhibition at 1 µM was 50 to 90%.

On to `CC1(C)CCC(CN2CCN(c3ccc(S(=O)(=O)NC(=O)c4ccc(F)c(-c5cn[nH]c5)n4)cc3)CC2)=C(c2ccc(Cl)cc2)C1` [Example 59, N-[4-[4-[[2-(4-Chlorophenyl)-4,4-dimethylcyclohexen-1-yl]methyl]piperazin-1-yl]phenyl]sulfonyl-5-fluoro-6-(1H-pyrazol-4-yl)pyridine-2-carboxamide], for which the inhibition at 1 µM was 50 to 90%. The same measure, in the same setting: the result for `CC1(C)CCC(CN2CCN(c3ccc(S(=O)(=O)NC(=O)CCc4cccnc4)cc3)CC2)=C(c2ccc(Cl)cc2)C1` [Example 31, N-([4-[4-[[2-(4-chlorophenyl)-4,4-dimethylcyclohexen-1-yl]methyl]piperazin-1-yl]phenyl]sulfonyl)-3-(pyridin-3-yl)propanamide] reads less than 50%.

In general, IC50 refers to the point on the concentration scale where inhibition reaches its midpoint. Regarding `CC1(C)CCC(CN2CCN(c3ccc(S(=O)(=O)NC(=O)c4ccc(CNc5ccc(Cl)cc5)c([N+](=O)[O-])c4)c(Oc4cnc5[nH]ccc5c4)c3)CC2)=C(c2ccc(Cl)cc2)C1` [Example 91, 4-[(4-chloroanilino)methyl]-N-[4-[4-[[2-(4-chlorophenyl)-4,4-dimethylcyclohexen-1-yl]methyl]piperazin-1-yl]-2-(1H-pyrrolo[2,3-b]pyridin-5-yloxy)phenyl]sulfonyl-3-nitrobenzamide], the concentration for half-maximal inhibition (IC50) lay in the range of 10 to 100 nM. For `CC1(C)CCC(CN2CCN(c3ccc(S(=O)(=O)NC(=O)c4cnc5sccc5c4)c(Oc4cnc5[nH]ccc5c4)c3)CC2)=C(c2ccc(Cl)cc2)C1` [Example 75, N-((2-((1H-pyrrolo[2,3-b]pyridin-5-yl)oxy)-4-(4-[[2-(4-Chlorophenyl)-4,4-dimethylcyclohexen-1-yl]methyl]piperazin-1-yl]phenyl)sulfonyl)thieno[2,3-b]pyridine-5-carboxamide], the IC50 is 100 to 1000 nM. Still for that read-out and setting: the value for `Cc1nn(C)c(C(=O)NS(=O)(=O)c2ccc(N3CCN(CC4=C(c5ccc(Cl)cc5)CC(C)(C)CC4)CC3)cc2Oc2cnc3[nH]ccc3c2)c1C` [Example 78, N-[4-[4-[[2-(4-chlorophenyl)-4,4-dimethylcyclohexen-1-yl]methyl]piperazin-1-yl]-2-(1H-pyrrolo[2,3-b]pyridin-5-yloxy)phenyl]sulfonyl-2,4,5-trimethylpyrazole-3-carboxamide] was 100 to 1000 nM.

For the molecule `CC1(C)CCC(CN2CCN(c3ccc(S(=O)(=O)NC(=O)c4ccc(COc5ccc(Cl)cc5)c([N+](=O)[O-])c4)cc3)CC2)=C(c2ccc(Cl)cc2)C1` [Example 39, N-([4-[4-[[2-(4-chlorophenyl)-4,4-dimethylcyclohexen-1-yl]methyl]piperazin-1-yl]phenyl]sulfonyl)-4-((4-chlorophenoxy)methyl)-3-nitrobenzamide], the IC50 lay in the range of 10 to 100 nM. The same measure, in the same setting: the value for `CNc1c([N+](=O)[O-])cc(C(=O)NS(=O)(=O)c2ccc(N3CCN(CC4=C(c5ccc(Cl)cc5)CC(C)(C)CC4)CC3)cc2Oc2cnc3[nH]ccc3c2)c(Cl)c1C` [Example 98, 2-chloro-N-[4-[4-[[2-(4-chlorophenyl)-4,4-dimethylcyclohexen-1-yl]methyl]piperazin-1-yl]-2-(1H-pyrrolo[2,3-b]pyridin-5-yloxy)phenyl]sulfonyl-3-methyl-4-(methylamino)-5-nitrobenzamide] was 10 to 100 nM; that for `CC1(C)CCC(CN2CCN(c3ccc(S(=O)(=O)NC(=O)c4ccc5c(c4)CCCO5)c(Oc4cnc5[nH]ccc5c4)c3)CC2)=C(c2ccc(Cl)cc2)C1` [Example 74, N-[4-[4-[[2-(4-chlorophenyl)-4,4-dimethylcyclohexen-1-yl]methyl]piperazin-1-yl]-2-(1H-pyrrolo[2,3-b]pyridin-5-yloxy)phenyl]sulfonyl-3,4-dihydro-2H-chromene-6-carboxamide] was 100 to 1000 nM; that for `Cc1cc([N+](=O)[O-])cc(C(=O)NS(=O)(=O)c2ccc(C3=CCN(CC4=C(c5ccc(Cl)cc5)CC(C)(C)CC4)CC3)cc2Oc2cnc3[nH]ccc3c2)n1` [Example 64, N-[4-[1-[[2-(4-Chlorophenyl)-4,4-dimethylcyclohexen-1-yl]methyl]-3,6-dihydro-2H-pyridin-4-yl]-2-(1H-pyrrolo[2,3-b]pyridin-5-yloxy)phenyl]sulfonyl-6-methyl-4-nitropyridine-2-carboxamide] was more than 1000 nM. `Cc1ncc(C(=O)NS(=O)(=O)c2ccc(N3CCN(CC4=C(c5ccc(Cl)cc5)CC(C)(C)CC4)CC3)cc2)cn1` [Example 8, N-([4-[4-[[2-(4-chlorophenyl)-4,4-dimethylcyclohexen-1-yl]methyl]piperazin-1-yl]phenyl]sulfonyl)-2-methylpyrimidine-5-carboxamide]: the inhibition at 1 µM was 50 to 90%. In the case of `Cn1ncc2cc(-c3nc(C(=O)NS(=O)(=O)c4ccc(N5CCN(CC6=C(c7ccc(Cl)cc7)CC(C)(C)CC6)CC5)cc4)ccc3F)ccc21` [Example 50, N-[4-[4-[[2-(4-chlorophenyl)-4,4-dimethylcyclohexen-1-yl]methyl]piperazin-1-yl]phenyl]sulfonyl-5-fluoro-6-(1-methyl-1H-indazol-5-yl)pyridine-2-carboxamide], the inhibition at 1 µM was in the range of 50 to 90%. Still for that read-out and setting: the result for `CNc1c([N+](=O)[O-])cc(C(=O)NS(=O)(=O)c2ccc(N3CCN(CC4=C(c5ccc(Cl)cc5)CC(C)(C)CC4)CC3)cc2)c(Cl)c1C` [Example 54, 2-chloro-N-[4-[4-[[2-(4-chlorophenyl)-4,4-dimethylcyclohexen-1-yl]methyl]piperazin-1-yl]phenyl]sulfonyl-4-(methylamino)-3-methyl-5-nitrobenzamide] reads 50 to 90%.

With `Cc1nc(C(=O)NS(=O)(=O)c2ccc(N3CCN(CC4=C(c5ccc(Cl)cc5)CC(C)(C)CC4)CC3)cc2Oc2cnc3[nH]ccc3c2)ccc1[N+](=O)[O-]` [Example 70, N-[4-[4-[[2-(4-chlorophenyl)-4,4-dimethylcyclohexen-1-yl]methyl]piperazin-1-yl]-2-(1H-pyrrolo[2,3-b]pyridin-5-yloxy)phenyl]sulfonyl-6-methyl-5-nitropyridine-2-carboxamide], the IC50 fell in the range of 10 to 100 nM. `Cc1c(Cl)c(C(=O)NS(=O)(=O)c2ccc(N3CCN(CC4=C(c5ccc(Cl)cc5)CC(C)(C)CC4)CC3)cc2Oc2cnc3[nH]ccc3c2)cc([N+](=O)[O-])c1OCC1CCCO1` (stereo not shown) [Example 107, 2-chloro-N-[4-[4-[[2-(4-chlorophenyl)-4,4-dimethylcyclohexen-1-yl]methyl]piperazin-1-yl]-2-(1H-pyrrolo[2,3-b]pyridin-5-yloxy)phenyl]sulfonyl-3-methyl-5-nitro-4-(oxolan-2-ylmethoxy)benzamide]: the IC50 is less than 10 nM. As for `COc1cc(-c2nc(C(=O)NS(=O)(=O)c3ccc(N4CCN(CC5=C(c6ccc(Cl)cc6)CC(C)(C)CC5)CC4)cc3)ccc2F)ccn1` [Example 55, N-[4-[4-[[2-(4-Chlorophenyl)-4,4-dimethylcyclohexen-1-yl]methyl]piperazin-1-yl]phenyl]sulfonyl-5-fluoro-6-(2-methoxypyridin-4-yl)pyridine-2-carboxamide], the inhibition at 1 µM was in the range of 50 to 90%.
